Data published in ChEMBL document CHEMBL1268962 (Bioorg Med Chem Lett, 2010).

Columns and labels:
Assay type in all cases: functional, cell-based
L1210 = test: Cytotoxicity against mouse L1210 cells after 72 hrs; settings: L1210, 72 h
HCT-116 [1] = test: Cytotoxicity against human HCT116 cells after 72 hrs; settings: HCT-116, 72 h
HCT-116 [2] = test: Cytotoxicity against vinblastine-resistant human HCT116 cells after 72 hrs; settings: HCT-116, 72 h

SMILES	IC50 (L1210)	IC50 (HCT-116 [1])	IC50 (HCT-116 [2])
CCC1=C[C@@H]2CN(CCc3c([nH]c4ccccc34)[C@@](C(N)=O)(c3cc4c(cc3OC)N(C)C3[C@]45CCN4CC=C[C@@](CC)([C@@H](OC(C)=O)[C@]3(O)C(=O)OC)[C@H]45)C2)C1 (some centres undefined)	> 10 µM	> 10 µM	> 10 µM
CCC1=C[C@@H]2CN(CCc3c([nH]c4ccccc34)[C@@](C=O)(c3cc4c(cc3OC)N(C)C3[C@]45CCN4CC=C[C@@](CC)([C@@H](OC(C)=O)[C@]3(O)C(=O)OC)[C@H]45)C2)C1 (some centres undefined)	6.3 µM	7 µM	> 10 µM
CCC1=C[C@@H]2CN(CCc3c([nH]c4ccccc34)[C@@](C#N)(c3cc4c(cc3OC)N(C)C3[C@]45CCN4CC=C[C@@](CC)([C@@H](OC(C)=O)[C@]3(O)C(=O)OC)[C@H]45)C2)C1 (some centres undefined)	6.5 µM	6.1 µM	6.8 µM
CCC1=C[C@@H]2CN(CCc3c([nH]c4ccccc34)[C@@](C(=O)OC)(c3cc4c(cc3OC)N(C)C3[C@]45CCN4CC=C[C@@](CC)([C@@H](OC(C)=O)[C@]3(O)C(=O)OC)[C@H]45)C2)C1 (some centres undefined)	0.065 µM	0.075 µM	0.6 µM
CC[C@]1(O)C[C@@H]2CN(CCc3c([nH]c4ccccc34)[C@@](C(=O)OC)(c3cc4c(cc3OC)N(C)[C@H]3[C@@](O)(C(=O)OC)[C@H](OC(C)=O)[C@]5(CC)C=CCN6CC[C@]43[C@@H]65)C2)C1 [VINBLASTINE]	0.006 µM		0.6 µM
CC[C@]1(O)C[C@@H]2CN(CCc3c([nH]c4ccccc34)[C@@](C#N)(c3cc4c(cc3OC)N(C)C3[C@]45CCN4CC=C[C@@](CC)([C@@H](OC(C)=O)[C@]3(O)C(=O)OC)[C@H]45)C2)C1 (some centres undefined)	0.63 µM	0.67 µM	7.4 µM
CC[C@]1(O)C[C@@H]2CN(CCc3c([nH]c4ccccc34)[C@@](CCO)(c3cc4c(cc3OC)N(C)C3[C@]45CCN4CC=C[C@@](CC)([C@@H](OC(C)=O)[C@]3(O)C(=O)OC)[C@H]45)C2)C1 (some centres undefined)	6.5 µM	5.8 µM	> 10 µM
CCOC(=O)[C@]1(c2cc3c(cc2OC)N(C)C2[C@]34CCN3CC=C[C@@](CC)([C@@H](OC(C)=O)[C@]2(O)C(=O)OC)[C@H]34)C[C@@H]2C=C(CC)CN(CCc3c1[nH]c1ccccc31)C2 (some centres undefined)	0.62 µM	0.64 µM	4.1 µM
CC[C@]1(O)C[C@@H]2CN(CCc3c([nH]c4ccccc34)[C@@](C(N)=O)(c3cc4c(cc3OC)N(C)C3[C@]45CCN4CC=C[C@@](CC)([C@@H](OC(C)=O)[C@]3(O)C(=O)OC)[C@H]45)C2)C1 (some centres undefined)	> 10 µM	> 10 µM	> 10 µM
CCOC(=O)[C@]1(c2cc3c(cc2OC)N(C)C2[C@]34CCN3CC=C[C@@](CC)([C@@H](OC(C)=O)[C@]2(O)C(=O)OC)[C@H]34)C[C@H]2CN(CCc3c1[nH]c1ccccc31)C[C@](O)(CC)C2 (some centres undefined)	0.06 µM	0.07 µM	0.83 µM
